The values below come from ChEMBL document CHEMBL5576067, “Synthesis and biological evaluation of novel 1,2,3,4-tetrahydro-β-carboline derivatives as potential antibacterial agents” (Bioorg Med Chem Lett, 2024).

The subject of series [1] is Staphylococcus aureus. As to the kind of experiment: Antibacterial activity against methicillin resistant Staphylococcus aureus ATCC33591 assessed as inhibition of bacterial growth incubated for 24 hrs by broth microdilution method. Format: functional.
Series [2] has as its system Staphylococcus aureus. Kind of series: Bactericidal activity against Staphylococcus aureus ATCC25923 assessed as inhibition of bacterial growth incubated for 24 hrs by resazurin dye based analysis. Format: functional.
In the next series the test system is Escherichia coli. As to the kind of experiment: Antibacterial activity against Escherichia coli ATCC25922 assessed as inhibition of bacterial growth incubated for 24 hrs by broth microdilution method. It counts as functional.
Series [3] relates to Staphylococcus aureus. Kind of series: Bactericidal activity against methicillin resistant Staphylococcus aureus ATCC33591 assessed as inhibition of bacterial growth incubated for 24 hrs by resazurin dye based analysis. Format: functional.
For series [4], the system named is Staphylococcus aureus. Kind of series: Antibacterial activity against Staphylococcus aureus ATCC25923 assessed as inhibition of bacterial growth incubated for 24 hrs by broth microdilution method. It counts as functional.
The test system of another series is Ralstonia solanacearum. As to the kind of experiment: Antibacterial activity against Ralstonia solanacearum assessed as inhibition of bacterial growth incubated for 24 hrs by broth microdilution method. Format: functional.
For series [5], the system named is Pseudomonas syringae pv. actinidiae. Kind of series: (§1) Antibacterial activity against Pseudomonas syringae pv. actinidiae assessed as inhibition of bacterial growth incubated for 24 hrs by broth microdilution method. Format: functional.
Another series concerns Enterococcus faecium. Kind of series: Antibacterial activity against vancomycin-resistant Enterococcus faecium ATCC 700221 assessed as inhibition of bacterial growth incubated for 24 hrs by broth microdilution method. It counts as functional.
For series [6], the system named is Staphylococcus aureus. Kind of series: Antibacterial activity against methicillin resistant Staphylococcus aureus ATCC33591 infected in mouse model of abdominal infection assessed as reduction in mean bacterial load in blood at 2 mg/kg, ip treated for 24 hrs starting from 2 hrs post infection. Format: functional, organism-based.
For series [7], the system named is Staphylococcus aureus. As to the kind of experiment: Antibacterial activity against methicillin resistant Staphylococcus aureus ATCC33591 assessed as post antibiotic effect at 2 ug/ml measured after 2 hrs. Format: functional. The conditions noted are these: dose 2 µg/ml.
The subject of series [8] is Staphylococcus aureus. Kind of series: Antibacterial activity against methicillin resistant Staphylococcus aureus ATCC33591 assessed as post antibiotic effect at 1 ug/ml measured after 2 hrs. Format: functional. The note with it: dose 1 µg/ml.
Series [9] is described as follows: as §1. Format: functional.
Series [10] has as its system Staphylococcus aureus. As to the kind of experiment: Drug resistance, ratio of MIC for methicillin-resistant Staphylococcus aureus ATCC33591 after 16 passages to MIC for methicillin-resistant Staphylococcus aureus ATCC33591 after initial exposure. Format: functional.
Series [11] deals with Staphylococcus aureus. As to the kind of experiment: Drug resistance, ratio of MIC for methicillin-resistant Staphylococcus aureus ATCC33591 after 19 passages to MIC for methicillin-resistant Staphylococcus aureus ATCC33591 after initial exposure. It counts as functional.
In series [12] the test system is Staphylococcus aureus. As to the kind of experiment: Antibacterial activity against methicillin resistant Staphylococcus aureus ATCC33591 infected in mouse model of abdominal infection assessed as reduction in mean bacterial load in blood at 5 mg/kg, ip treated for 24 hrs starting from 2 hrs post infection relative to control. Also noted: scale not given: the % may be the effect or the level left. It counts as functional.

Series [13] relates to Staphylococcus aureus. Kind of series: Antibacterial activity against methicillin resistant Staphylococcus aureus ATCC33591 infected in mouse model of abdominal infection assessed as reduction in mean bacterial load in blood at 10 mg/kg, ip treated for 24 hrs starting from 2 hrs post infection relative to control. It counts as functional. Also noted: scale not given: the % may be the effect or the level left.

In series [14] the test system is Staphylococcus aureus. Kind of series: Drug resistance, ratio of MIC for methicillin-resistant Staphylococcus aureus ATCC33591 after 18 passages to MIC for methicillin-resistant Staphylococcus aureus ATCC33591 after initial exposure. Format: functional.
In series [15] the test system is Staphylococcus aureus. Kind of series: Antibacterial activity against methicillin resistant Staphylococcus aureus ATCC33591 assessed as post antibiotic effect at 8 ug/ml measured after 2 hrs. It counts as functional. The note with it: dose 8 µg/ml.
A short description of series [16]: Cytotoxicity against human L02 cells assessed as cell viability at 32 to 64 ug/ml measured after 24 hrs by MTT assay. Format: toxicity, cell-based. The conditions noted are these: at 32 to 64 µg/mL, dose 32-64 µg/ml, read-out: Activity.
Series [17] has as its system Staphylococcus aureus. As to the kind of experiment: Antibacterial activity against methicillin resistant Staphylococcus aureus ATCC33591 assessed as eradication of viable bacteria at >=4 times MIC measured within 24 hrs by time kill assay relative to control. Format: functional.
Series [18] in a line: Cytotoxicity against human HepG2 cells assessed as cell viability at 32 to 64 ug/ml measured after 24 hrs by MTT assay. Format: toxicity, cell-based. The conditions noted are these: at 32 to 64 µg/mL, dose 32-64 µg/ml, read-out: Activity.
For series [19], the system named is Staphylococcus aureus. As to the kind of experiment: Antibacterial activity against methicillin resistant Staphylococcus aureus ATCC33591 assessed as reduction in viable bacterial count at 2 times MIC measured within 24 hrs by time kill assay relative to control. Format: functional.
The subject of series [20] is Staphylococcus aureus. Kind of series: Ratio of MBC to MIC for Staphylococcus aureus ATCC25923. It counts as functional.
The subject of series [21] is Staphylococcus aureus. Kind of series: Antibacterial activity against methicillin resistant Staphylococcus aureus ATCC33591 assessed as inhibition of bacterial growth at 1 times MIC incubated for 24 hrs by time kill assay. It counts as functional, organism-based.
Series [22] has as its system Staphylococcus aureus. As to the kind of experiment: Antibacterial activity against methicillin resistant Staphylococcus aureus ATCC33591 assessed as eradication of viable bacteria at >8 times MIC measured after 24 hrs by time kill assay. Format: functional, organism-based.
Series [23] has as its system Staphylococcus aureus. Kind of series: Antibacterial activity against methicillin resistant Staphylococcus aureus ATCC33591 assessed as post antibiotic effect at 16 ug/ml measured after 2 hrs. It counts as functional. The conditions noted are these: dose 16 µg/ml.

In brackets after ≈: the same amount, converted by molar mass. Activity calls are given as the source filed them. No cut-off for these calls is given here. Bounds are passed on as bounds.

For the compound GENTAMICIN, the MIC was greater than 128 µg/mL in the series with Staphylococcus aureus [1]; 4 µg/mL in the series on Escherichia coli; 4 µg/mL with Staphylococcus aureus [4]; 16 µg/mL with Ralstonia solanacearum; 8 µg/mL in [5]; greater than 128 µg/mL in the series with Enterococcus faecium. For the same compound, the MBC in the series with Staphylococcus aureus [2] was 8 µg/mL; in the series on Staphylococcus aureus [3], greater than 128 µg/mL.
As to `O=C(O)c1cn(C2CC2)c2cc(N3CCNCC3)c(F)cc2c1=O` [CIPROFLOXACIN], the result with Staphylococcus aureus [6] was Active. The PAE is 1.79 h in the series on Staphylococcus aureus [7] and 1.18 h with Staphylococcus aureus [8]. The MIC was 0.5 µg/mL (≈ 1.51 µM) with Staphylococcus aureus [1]; 0.5 µg/mL (≈ 1.51 µM) with Staphylococcus aureus [4]; 0.25 µg/mL (≈ 0.754 µM) with Ralstonia solanacearum; 0.5 µg/mL (≈ 1.51 µM) in series [9]; greater than 128 µg/mL with Enterococcus faecium. Besides, the MBC in the series on Staphylococcus aureus [3] is 2 µg/mL (≈ 6.04 µM).
Take `CO[C@H]1/C=C/O[C@@]2(C)Oc3c(C)c(O)c4c(O)c(c(/C=N/N5CCN(C)CC5)c(O)c4c3C2=O)NC(=O)/C(C)=C\C=C\[C@H](C)[C@H](O)[C@@H](C)[C@@H](O)[C@@H](C)[C@H](OC(C)=O)[C@@H]1C` [RIFAMPIN]: the Ratio came out at 256 in the series with Staphylococcus aureus [10] and 1024 in the series on Staphylococcus aureus [11]. Besides, the MIC with Staphylococcus aureus [1] and with Staphylococcus aureus [4] was 0.25 µg/mL (≈ 0.304 µM) in each case. For the same compound, the MBC in the series with Staphylococcus aureus [2] is 2 µg/mL (≈ 2.43 µM); in the series on Staphylococcus aureus [3], 1 µg/mL (≈ 1.22 µM).
As to `O=C(Nc1ccc(C2NCCc3c2[nH]c2ccccc32)cc1)c1ccc(C(F)(F)F)cc1` (centres undefined), the Activity in the series with Staphylococcus aureus [12] is listed as 9.8%; in the series on Staphylococcus aureus [13] it was 26%; in the series with Staphylococcus aureus [17], 94.3%; with Staphylococcus aureus [19], 87.7%. In addition, the MIC with Staphylococcus aureus [1] was 4 µg/mL (≈ 9.19 µM); in the series with Escherichia coli, 4 µg/mL (≈ 9.19 µM); in the series on Staphylococcus aureus [4], 4 µg/mL (≈ 9.19 µM); in the series on Ralstonia solanacearum, 4 µg/mL (≈ 9.19 µM); in [9], 16 µg/mL (≈ 36.7 µM); in the series with Enterococcus faecium it was 64 µg/mL (≈ 147 µM). Also, the minimum bactericidal concentration (MBC) in the series on Staphylococcus aureus [2] and in the series on Staphylococcus aureus [3] was 4 µg/mL (≈ 9.19 µM) each time. In addition, the Ratio in the series with Staphylococcus aureus [14] is on record as less than 4; in the series with Staphylococcus aureus [20], 1. The PAE in the series with Staphylococcus aureus [15] was determined as 1.78 h; in the series with Staphylococcus aureus [23], 2.63 h. In addition, the viability at 24 h in series [16] and in [18] was greater than 95% throughout. Besides, the result with Staphylococcus aureus [21] and in the series on Staphylococcus aureus [22] was Active.
`O=C(Nc1ccc(C2NCCc3c2[nH]c2ccccc32)cc1)c1ccc(F)cc1` (centres undefined): the minimal inhibitory concentration (MIC) is 4 µg/mL (≈ 10.4 µM) in the series on Staphylococcus aureus [1]; 16 µg/mL (≈ 41.5 µM) with Escherichia coli; 4 µg/mL (≈ 10.4 µM) with Staphylococcus aureus [4]; 4 µg/mL (≈ 10.4 µM) with Ralstonia solanacearum; 64 µg/mL (≈ 166 µM) in [9]; greater than 128 µg/mL in the series on Enterococcus faecium. In addition, the MBC with Staphylococcus aureus [2] and with Staphylococcus aureus [3] was 8 µg/mL (≈ 20.8 µM) each time. In addition, the Ratio was less than 4 with Staphylococcus aureus [14] and 1 in the series on Staphylococcus aureus [20]. Further, the PAE turned out to be 0.95 h in the series with Staphylococcus aureus [15] and 1.28 h in the series on Staphylococcus aureus [23]. The viability at 24 h in [16] and in [18] was greater than 95% in each case. The result in the series with Staphylococcus aureus [21] and with Staphylococcus aureus [22] was Active.
